Source: PMC8699473, “An Easily Expandable Multi-Drug LC-MS Assay for the Simultaneous Quantification of 57 Oral Antitumor Drugs in Human Plasma” (Cancers, 2021)

Experiment: Long-term stability in spiked pooled human plasma

| SMILES | Long-term stability, 1 month, -20°C Accuracy [%] (validation standard 2xLLOV) | Long-term stability, 1 month, -80°C Accuracy [%] (validation standard 2xLLOV) | Long-term stability, 2 month, -80°C Accuracy [%] (validation standard 2xLLOV) | Long-term stability, 3 month, -20°C Accuracy [%] (validation standard 2xLLOV) | Long-term stability, 3 month, -80°C Accuracy [%] (validation standard 2xLLOV) | Long-term stability, 6 weeks, 4°C, without daylight Accuracy [%] (validation standard 2xLLOV) | Long-term stability, 1 month, -20°C Accuracy [%] (validation standard LLOV) | Long-term stability, 1 month, -80°C Accuracy [%] (validation standard LLOV) | Long-term stability, 2 month, -20°C Accuracy [%] (validation standard LLOV) | Long-term stability, 2 month, -80°C Accuracy [%] (validation standard LLOV) | Long-term stability, 3 month, -20°C Accuracy [%] (validation standard LLOV) | Long-term stability, 3 month, -80°C Accuracy [%] (validation standard LLOV) | Long-term stability, 6 weeks, 4°C, without daylight Accuracy [%] (validation standard LLOV) | Long-term stability, 1 month, -20°C Accuracy [%] (validation standard MOV) | Long-term stability, 1 month, -80°C Accuracy [%] (validation standard MOV) | Long-term stability, 2 month, -20°C Accuracy [%] (validation standard MOV) | Long-term stability, 2 month, -80°C Accuracy [%] (validation standard MOV) | Long-term stability, 3 month, -20°C Accuracy [%] (validation standard MOV) | Long-term stability, 3 month, -80°C Accuracy [%] (validation standard MOV) | Long-term stability, 6 weeks, 4°C, without daylight Accuracy [%] (validation standard MOV) | other results |
| --- | --- | --- | --- | --- | --- | --- | --- | --- | --- | --- | --- | --- | --- | --- | --- | --- | --- | --- | --- | --- | --- |
| NC(=O)c1cccc2cn(-c3ccc([C@@H]4CCCNC4)cc3)nc12 [Niraparib] | 101.4% | 94.5% | 106.0% | 99.8% | 95.7% | 96.1% | 97.8% | 93.4% | 101.8% | 102.4% | 96.1% | 95.4% | 94.3% | 99.8% | 99.6% | 105.3% | 103.9% | 102.2% | 100.4% | 104.5% | Long-term stability, 2 month, -20°C Accuracy [%] (validation standard 2xLLOV): 104.1%; Long-term stability, 1 month, -20°C Accuracy [%] (validation standard ULOV): 100.8%; Long-term stability, 1 month, -80°C Accuracy [%] (validation standard ULOV): 98.5%; Long-term stability, 2 month, -20°C Accuracy [%] (validation standard ULOV): 103.3%; Long-term stability, 2 month, -80°C Accuracy [%] (validation standard ULOV): 104.1%; Long-term stability, 3 month, -20°C Accuracy [%] (validation standard ULOV): 100.4%; Long-term stability, 3 month, -80°C Accuracy [%] (validation standard ULOV): 101.8%; Long-term stability, 6 weeks, 4°C, without daylight Accuracy [%] (validation standard ULOV): 96.4% |
| Cc1ccc(NC(=O)c2ccc(CN3CCN(C)CC3)cc2)cc1Nc1nccc(-c2cccnc2)n1 [Imatinib] | 97.8% | 96.3% | 112.9% | 64.1% | 72.7% | 103.4% | 88.0% | 77.3% | 95.6% | 103.3% | 19.7% | 18.2% | 86.4% | 87.1% | 84.4% | 99.4% | 96.4% | 90.0% | 90.1% | 95.4% | Long-term stability, 2 month, -20°C Accuracy [%] (validation standard 2xLLOV): 104.1%; Long-term stability, 1 month, -20°C Accuracy [%] (validation standard ULOV): 87.9%; Long-term stability, 1 month, -80°C Accuracy [%] (validation standard ULOV): 79.8%; Long-term stability, 2 month, -20°C Accuracy [%] (validation standard ULOV): 91.0%; Long-term stability, 2 month, -80°C Accuracy [%] (validation standard ULOV): 89.1%; Long-term stability, 3 month, -20°C Accuracy [%] (validation standard ULOV): 89.6%; Long-term stability, 3 month, -80°C Accuracy [%] (validation standard ULOV): 89.4%; Long-term stability, 6 weeks, 4°C, without daylight Accuracy [%] (validation standard ULOV): 89.8% |
| Cn1cnc2c(F)c(Nc3ccc(Br)cc3F)c(C(=O)NOCCO)cc21 [Binimetinib] | 94.8% | 97.4% | 106.4% | 99.5% | 104.4% | 95.3% | 103.4% | 106.3% | 116.3% | 124.3% | 105.4% | 104.6% | 104.1% | 92.3% | 94.4% | 95.9% | 96.6% | 97.9% | 98.7% | 109.9% | Long-term stability, 2 month, -20°C Accuracy [%] (validation standard 2xLLOV): 105.7%; Long-term stability, 1 month, -20°C Accuracy [%] (validation standard ULOV): 99.6%; Long-term stability, 1 month, -80°C Accuracy [%] (validation standard ULOV): 97.2%; Long-term stability, 2 month, -20°C Accuracy [%] (validation standard ULOV): 99.2%; Long-term stability, 2 month, -80°C Accuracy [%] (validation standard ULOV): 101.1%; Long-term stability, 3 month, -20°C Accuracy [%] (validation standard ULOV): 98.9%; Long-term stability, 3 month, -80°C Accuracy [%] (validation standard ULOV): 102.6%; Long-term stability, 6 weeks, 4°C, without daylight Accuracy [%] (validation standard ULOV): 99.7% |
| COc1cc2nccc(Oc3ccc(NC(=O)C4(C(=O)Nc5ccc(F)cc5)CC4)cc3)c2cc1OC [Cabozantinib] | 98.4% | 92.5% | 100.3% | 92.5% | 94.6% | 96.8% | 91.9% | 89.4% | 97.7% | 100.2% | 90.4% | 91.8% | 94.1% | 97.7% | 97.3% | 101.6% | 102.9% | 100.0% | 98.9% | 108.5% | Long-term stability, 1 month, -20°C Accuracy [%] (validation standard ULOV): 95.7%; Long-term stability, 1 month, -80°C Accuracy [%] (validation standard ULOV): 93.1%; Long-term stability, 2 month, -20°C Accuracy [%] (validation standard ULOV): 99.6%; Long-term stability, 2 month, -80°C Accuracy [%] (validation standard ULOV): 100.3%; Long-term stability, 3 month, -20°C Accuracy [%] (validation standard ULOV): 96.3%; Long-term stability, 3 month, -80°C Accuracy [%] (validation standard ULOV): 93.1%; Long-term stability, 6 weeks, 4°C, without daylight Accuracy [%] (validation standard ULOV): 101.8% |
